Test results reported in ChEMBL document CHEMBL3997819, “Synthesis and biological evaluation of heterocyclic analogues of pregnenolone as novel anti-osteoporotic agents” (2017).
Active and inactive are the calls of the source. The rule behind the calls is not given here.

Legend:
[1] = test system: Calvarial osteoblast; assay: Antiosteoporotic activity in mouse calvarial osteoblasts assessed as enhancement in ALP activity at 1 pM to 1 uM after 48 hrs by PNPP substrate-based spectrophotometric method relative to control; assay type: functional, cell-based
[2] = test system: Calvarial osteoblast; assay: Antiosteoporotic activity in mouse calvarial osteoblasts assessed as enhancement in ALP activity at 1 nM to 1 uM after 48 hrs by PNPP substrate-based spectrophotometric method relative to control; assay type: functional, cell-based
[3] = test system: Calvarial osteoblast; assay: Antiosteoporotic activity in mouse calvarial osteoblasts assessed as enhancement in ALP activity at 1 pM after 48 hrs by PNPP substrate-based spectrophotometric method relative to control; assay type: functional
[4] = test system: Calvarial osteoblast; assay: Antiosteoporotic activity in mouse calvarial osteoblasts assessed as enhancement in ALP activity at 100 pM after 48 hrs by PNPP substrate-based spectrophotometric method relative to control; assay type: functional
[5] = test system: Calvarial osteoblast; assay: Antiosteoporotic activity in mouse calvarial osteoblasts assessed as upregulation of Runx-2 mRNA levels at 1 pM measured at 24 hrs by real-time quantitative PCR method relative to control; assay type: functional
[6] = test system: Calvarial osteoblast; assay: Antiosteoporotic activity in mouse calvarial osteoblasts assessed as increase in mineral nodule formation at 1 to 100 pM after 21 days by alizarin red-S dye-based optical densitometry relative to control; assay type: functional, cell-based
[7] = test system: Calvarial osteoblast; assay: Antiosteoporotic activity in mouse calvarial osteoblasts assessed as upregulation of OCN mRNA levels at 1 pM measured at 24 hrs by real-time quantitative PCR method relative to control; assay type: functional
[8] = test system: Calvarial osteoblast; assay: Antiosteoporotic activity in mouse calvarial osteoblasts assessed as upregulation of BMP-2 mRNA levels at 1 pM measured at 24 hrs by real-time quantitative PCR method relative to control; assay type: functional

## CC(=O)O[C@H]1CC[C@@]2(C)C(=CC[C@H]3[C@@H]4CC[C@H](C(C)=O)[C@@]4(C)CC[C@@H]32)C1
[1]
  Activity: Active

## C[C@]12CC[C@H]3[C@@H](CC=C4C[C@@H](O)CC[C@@]43C)[C@@H]1CC[C@@H]2c1ccc2cc(Br)cc(Br)c2n1
[1]
  Activity: Active

## C[C@]12CC[C@H]3[C@@H](CC=C4C[C@@H](O)CC[C@@]43C)[C@@H]1CC[C@@H]2c1ccc2ccccc2n1
[2]
  Activity: Active
[3]
  Activity: 100%
[4]
  Activity: 85%
[5]
  fold change (FC): 1.5
[6]
  Activity: Active
[7]
  fold change (FC): 3
[8]
  fold change (FC): 2

## C/C(=N\O)[C@H]1CC[C@H]2[C@@H]3CC=C4C[C@@H](O)CC[C@]4(C)[C@H]3CC[C@]12C
[1]
  Activity: Active
